According to US10399931B2, “Octahydroanthracene compound, preparation method and application thereof” (SHANDONG XINHUA PHARMACEUTICAL CO., LTD., priority 2016, dated 2019):
Where two headings read alike, the source gives them in different places.

Key:
[1] = test system: Human leukemia HL60 cells; test: MTT assay, proliferation of human leukemia HL60 cells; type: cell-based; details: Homo sapiens
Method: (§1) The survival rate of cells was determined by MTT assay, which is based on the metabolic reduction of 3-(4,5-dimethyl-2thiahiazoyl)-3,5-di-phenyl-tetrazolium bromide (MTT) by viable cells. MTT is a yellow compound, a dye that accepts hydrogen ion, which can act on the respiratory chain in the mitochondria of viable cells. Under the action of succinate dehydrogenase and cytochrome C, the tetrazolium ring was cleaved to form blue Formazan crystals, and the amount of Formazan crystals generated was only proportional to the number of the viable cells. The enzymes disappeared in dead cells, so Formazan crystals could not be dissolved in MTT solution containing 20% sodium dodecyl sulfate (pH 4.7).
(§2) The cells in the logarithmic growth phase were selected and adjusted to an appropriate cell density, seeded in a 96-well plate, 100 μl/well, and cultured in a 37° C., 5% CO2 incubator. The cells were allowed to adhere overnight, then the culture medium was replaced and the drug was added to cultivate for 48 h. A blank control group, a drug administration group and a positive control group were set, with four repeats in each group.
(§3) After 48 h of drug treatment, the cells were incubated with 0.25 mg/ml MTT at 37° C. for 3-4 h, and 100 μl of dimethyl sulfoxide (DMSO) was added to each well after aspirating the culture solution.

APP/PS1 transgenic mice [2] = test: Morris water maze test (oriented navigation and probe test); type: in vivo; details: 100 mg/kg
Method: The drugs were administered three days after the adaptive feeding. Peanut oil was used as the solvent. The drug was intragastric administered once a day for 15 days. On the 6th to 9th day after the administration, the new object identification test was performed. On the 10th day, the Y-maze test was performed. On the 11th to 15th day, the Morris water maze test was performed to determine the improvement of learning and memory. The administration of the drugs was continued during the behavioral experiment until the animals were sacrificed (16th day).
The experimental device includes a black circular pool with a diameter of 100 cm and a height of 40 cm, and a white platform (safe platform) having a diameter of about 10 cm. The location of the safe platform could be moved. Morris Water Maze Video Detection and Analysis System was provided by the Institute of Materia Medica, China Academy of Medical Sciences. One day before the experiment, water was injected into the black circular pool (water temperature 22±1° C.), and white pigment was added to mix uniformly. The water surface was usually about 1 cm higher than the top of the safe platform. The pool was divided into four quadrants I, II, III and IV, and the safe platform was usually placed in the middle of the quadrant IV. The experiment was divided into two parts: (1) Oriented navigation: the animal grouping was input into a computer software in advance. The position of the safe platform was kept unchanged during the experiment. During the test, the experimental animal facing the pool wall was placed in the water from different inlets, and the computer simultaneously collected data and recorded the time to find the safe platform (escape latency). Data collection automatically stopped when the animal stayed on the safe platform for 10 s. The data acquisition time of the mouse was 60 s. If the animal could not find the safe platform within the specified time, the escape latency was recorded as 60 s. At the same time, the operator induced the animal to reach the safe platform and stay for 10 s. The animal was trained twice a day for 4 consecutive days. (2) Probe test: after the oriented navigation test is completed, the safe platform is removed and the animal was placed in the pool free to explore for 60 s. The camera system automatically recorded the time and distance of the experimental animal swimming in the quadrant of the safe platform within the specified time and the number of times passing through the location of the safe platform.

APP/PS1 transgenic mice [3] = test: Nesting experiment; type: in vivo; details: at 12 h
From the text: Each mouse was separately housed in a cage. On the first day of the test, two pieces of cotton (5 cm×5 cm) were placed in the cage. […]

[4] = test system: Human cutaneous T-cell lymphoma Hut102 cells; test: MTT assay, proliferation of human cutaneous T-cell lymphoma Hut102 cells; type: cell-based
Method: as §1, §2, §3

[5] = HL-60, 48 h, read-out: Inhibitive rate (%) against HL60 cells
[6] = HL-60, read-out: Inhibitive rate (%) against HL60 cells
[7] = HuT-102, read-out: Inhibitive rate (%) against Hut102 cells
[8] = HL-60, 48 h, 10 μM, 48 h, Mean ± SE, read-out: Inhibitive rate (%) against HL60 cells
[9] = HuT-102, 10 μM, Mean ± SE, read-out: Inhibitive rate (%) against Hut102 cells

## C=C(c1ccc(C(=O)O)cc1)c1cc2c(cc1C)C(C)(C)CCC2(C)C [BEXA, bexarotene, reference compound]
[1]; HL-60, 48 h, read-out: IC50 against HL60 cells
  IC50: 6.31 ± 0.7 µM
[1]; [5]
  inhibition at 10 µM: 4 ± 1.14%
[1]; [6]
  inhibition at 0.01 µM: 16.5 ± 1.66%
  inhibition at 0.1 µM: 15.1 ± 1.44%
  inhibition at 1 µM: 65.5 ± 1.72%
  inhibition at 10 µM: 80.88 ± 0.63%
APP/PS1 transgenic mice [2]; third and fourth days of training
  Escape latency vs model group: significantly reduced
APP/PS1 transgenic mice [2]; probe test
  Number of times traversing the safe platform vs model group: significantly increased
  Percentage of the swimming distance in the target quadrant vs model group: significantly increased
  Swimming time in the target quadrant vs model group: significantly increased
APP/PS1 transgenic mice [3]; 100 mg/kg
  Nesting ability vs model group: significantly increased
[4]; [7]
  inhibition at 10 µM: 6.41 ± 4.1%

## CC1(C)CCC(C)(C)c2c1cc1c(c2NC(=O)c2ccc(C(=O)NO)cc2)C(C)(C)CCC1(C)C [OAA3, N-hydroxy-4-[(1,1,4,4,5,5,8,8-octamethyl-1,2,3,4,5,6,7,8-octahydro-9-anthryl)carbamoyl] benzamide]
[1]; [8]
  inhibition at 10 µM: 4.79 ± 6.65%
[4]; [9]
  inhibition at 10 µM: 11.3 ± 0.46%

## COC(=O)c1ccc(C(=O)Nc2c3c(cc4c2C(C)(C)CCC4(C)C)C(C)(C)CCC3(C)C)cc1 [OAA-1, 4-[(1,1,4,4,5,5,8,8-octamethyl-1,2,3,4,5,6,7,8-octahydro-9-anthryl)carbamoyl] methyl Benzoate]
[1]; [8]
  inhibition at 10 µM: 8.27 ± 1.57%
[4]; [9]
  inhibition at 10 µM: 7.11 ± 1.06%

## CC1(C)CCC(C)(C)c2c1cc1c(c2NC(=O)c2ccc(C(=O)O)cc2)C(C)(C)CCC1(C)C [OAA-2, 4-[(1,1,4,4,5,5,8,8-octamethyl-1,2,3,4,5,6,7,8-octahydro-9-anthryl)carbamoyl] benzoic Acid]
[1]; [8]
  inhibition at 10 µM: 3.06 ± 2.23%
[4]; [9]
  inhibition at 10 µM: -3.63 ± 1.07%

## CC1(C)CCC(C)(C)c2c1cc1c(c2NC(=O)c2ccc(C(=O)Nc3ccccc3N)cc2)C(C)(C)CCC1(C)C [OAA-4, N-(2-aminophenyl)-4-[(1,1,4,4,5,5,8,8-octamethyl-1,2,3,4,5,6,7,8-octahydro-9-anthryl)carbamoyl] benzamide]
[1]; [8]
  inhibition at 10 µM: 12.5 ± 1.32%
[4]; [9]
  inhibition at 10 µM: 30.3 ± 0.7%

## CCN(CC)CCNC(=O)c1ccc(C(=O)Nc2c3c(cc4c2C(C)(C)CCC4(C)C)C(C)(C)CCC3(C)C)cc1 [OAA-5, N-[2-(N,N-diethylamino)]ethyl-4-[(1,1,4,4,5,5,8,8-octamethyl-1,2,3,4,5,6,7,8-octahydro-9-anthryl)carbamoyl] benzamide]
[1]; [8]
  inhibition at 10 µM: 16.6 ± 1.43%
[4]; [9]
  inhibition at 10 µM: 27.7 ± 2.38%

## CN(C)CCNC(=O)c1ccc(C(=O)Nc2c3c(cc4c2C(C)(C)CCC4(C)C)C(C)(C)CCC3(C)C)cc1 [OAA-7, N-[2-(N,N-dimethylamino)]ethyl-4-[(1,1,4,4,5,5,8,8-octamethyl-1,2,3,4,5,6,7,8-octahydro-9-anthryl)carbamoyl] benzamide]
[1]; [8]
  inhibition at 10 µM: 10.8 ± 0.69%
[4]; [9]
  inhibition at 10 µM: 8.34 ± 4.37%

## CC1(C)CCC(C)(C)c2c1cc1c(c2NC(=O)c2ccc(C(=O)Nc3ccccc3O)cc2)C(C)(C)CCC1(C)C [OAA-12, N-(2-hydroxyphenyl)-4[(1,1,4,4,5,5,8,8-octamethyl-1,2,3,4,5,6,7,8-octahydro-9-anthryl)carbamoyl] benzamide]
[4]; [9]
  inhibition at 10 µM: 25.1 ± 0.65%

## CC1(C)CCC(C)(C)c2c1cc1c(c2NC(=O)c2ccc(N)cc2)C(C)(C)CCC1(C)C [OAB-1, 4[(1,1,4,4,5,5,8,8-octamethyl-1,2,3,4,5,6,7,8-octahydro-9-anthryl)carbamoyl] aniline]
[1]; [8]
  inhibition at 10 µM: 5.95 ± 2.98%
[4]; [9]
  inhibition at 10 µM: 5.43 ± 2.54%

## CCOC(=O)Nc1ccc(C(=O)Nc2c3c(cc4c2C(C)(C)CCC4(C)C)C(C)(C)CCC3(C)C)cc1 [OAB-2, 4-[(1,1,4,4,5,5,8,8-octamethyl-1,2,3,4,5,6,7,8-octahydro-9-anthryl)carbamoyl] ethyl phenylcarbamate]
[1]; [5]
  inhibition at 10 µM: 4.51 ± 1.8%
[4]; [7]
  inhibition at 10 µM: 6.58 ± 1.51%

## CC1(C)CCC(C)(C)c2c1cc1c(c2NC(=O)c2ccc(NC(=O)N3CCOCC3)cc2)C(C)(C)CCC1(C)C [OAB-3, 4-[(1,1,4,4,5,5,8,8-octamethyl-1,2,3,4,5,6,7,8-octahydro-9-anthryl)carbamoyl] phenylcarbamoyl-1-morpholine]
[1]; [8]
  inhibition at 10 µM: 1.71 ± 5.44%
[4]; [9]
  inhibition at 10 µM: -0.89 ± 3.47%

## CC1(C)CCC(C)(C)c2c1cc1c(c2NC(=O)c2ccc(NC(=O)Nc3ccccc3N)cc2)C(C)(C)CCC1(C)C [OAB-4, 1-(2-aminophenyl)-3-{4-[(1,1,4,4,5,5,8,8-octamethyl-1,2,3,4,5,6,7,8-octahydro-9-anthryl)carbamoyl]phenyl} urea]
[1]; [8]
  inhibition at 10 µM: 15.4 ± 1.16%
[4]; [9]
  inhibition at 10 µM: 34 ± 0.93%

## CC1(C)CCC(C)(C)c2c1cc1c(c2NC(=O)c2ccc(N(S(C)(=O)=O)S(C)(=O)=O)cc2)C(C)(C)CCC1(C)C [OAB-5, N,N-dimethylsulfonyl-4-[(1,1,4,4,5,5,8,8-octamethyl-1,2,3,4,5,6,7,8-octahydro-9-anthryl)carbamoyl] aniline]
[1]; [8]
  inhibition at 10 µM: 42.3 ± 1.05%
[4]; [9]
  inhibition at 10 µM: 29.1 ± 1.39%

## CC1(C)CCC(C)(C)c2c1cc1c(c2NC(=O)c2ccc(NC(=O)NCCCC(=O)O)cc2)C(C)(C)CCC1(C)C [OAB-7, 1-(4-carboxypropyl)-3-{4-[(1,1,4,4,5,5,8,8-octamethyl-1,2,3,4,5,6,7,8-octahydro-9-anthryl)carbamoyl]phenyl} urea]
[1]; [8]
  inhibition at 10 µM: 1.76 ± 1.41%
[4]; [9]
  inhibition at 10 µM: 5.6 ± 3%

## COC(=O)Nc1ccc(C(=O)Nc2c3c(cc4c2C(C)(C)CCC4(C)C)C(C)(C)CCC3(C)C)cc1 [OAB-8, 4-[(1,1,4,4,5,5,8,8-octamethyl-1,2,3,4,5,6,7,8-octahydro-9-anthryl)carbamoyl] methyl Phenylcarbamate]
[1]; [8]
  inhibition at 10 µM: 7.24 ± 4.74%
[4]; [9]
  inhibition at 10 µM: -1.05 ± 3.08%

## CC1(C)CCC(C)(C)c2c1cc1c(c2NC(=O)c2ccc(NC(=O)N3CCC(C(=O)O)CC3)cc2)C(C)(C)CCC1(C)C [OAB-9, N-{4-[(1,1,4,4,5,5,8,8-octamethyl-1,2,3,4,5,6,7,8-octahydro-9-anthryl)carbamoyl]phenylcarbamoyl}-4-piperidinyl Formic Acid]
[1]; [8]
  inhibition at 10 µM: 8.03 ± 1.07%
[4]; [9]
  inhibition at 10 µM: -0.3 ± 1.13%

## CC1(C)CCC(C)(C)c2c1cc1c(c2NC(=O)c2ccc(NC(=O)Nc3ccccc3O)cc2)C(C)(C)CCC1(C)C [OAB-10, 1-(2-hydroxyphenyl)-3-{4-[(1,1,4,4,5,5,8,8-octamethyl-1,2,3,4,5,6,7,8-octahydro-9-anthryl)carbamoyl]phenyl} urea]
[1]; [8]
  inhibition at 10 µM: 7.21 ± 0.96%
[4]; [9]
  inhibition at 10 µM: 17.1 ± 0.93%

## CC1(C)CCC(C)(C)c2c1cc1c(c2NC(=O)c2ccc(NC(=O)NO)cc2)C(C)(C)CCC1(C)C [OAB-15, 1-hydroxy-3-{4-[(1,1,4,4,5,5,8,8-octamethyl-1,2,3,4,5,6,7,8-octahydro-9-anthryl)carbamoyl]phenyl} urea]
[1]; [8]
  inhibition at 10 µM: 0.59 ± 1.44%
[4]; [9]
  inhibition at 10 µM: 2.3 ± 3.26%

## CC1(C)CCC(C)(C)c2c1cc1c(c2NC(=O)c2ccc(NC(=O)ON)cc2)C(C)(C)CCC1(C)C [OAB-16, 4-[(1,1,4,4,5,5,8,8-octamethyl-1,2,3,4,5,6,7,8-octahydro-9-anthryl)carbamoyl] phenyl Carbamic Acid-O-Amino Ester]
[1]; [8]
  inhibition at 10 µM: 1.67 ± 3.24%
[4]; [9]
  inhibition at 10 µM: 8.38 ± 2.31%

## CC1(C)CCC(C)(C)c2c1cc1c(c2NC(=O)c2ccc(NC(=O)NCCCO)cc2)C(C)(C)CCC1(C)C [OAB-18, 1-(3-hydroxy) propyl-3-{4-[(1,1,4,4,5,5,8,8-octamethyl-1,2,3,4,5,6,7,8-octahydro-9-anthryl)carbamoyl]phenyl} urea]
[1]; [8]
  inhibition at 10 µM: 2.47 ± 2.64%
[4]; [9]
  inhibition at 10 µM: 4.32 ± 1.29%

## COc1cc2c(cc1OC)C(=O)C(CC1CCN(Cc3ccccc3)CC1)C2 (centres unmarked) [donepezil, reference compound]
APP/PS1 transgenic mice [3]
  Nesting ability vs model group: significantly increased
